# Measurements reported in ChEMBL document CHEMBL1201862, “PubChem BioAssay data set” (2004).
# Activity calls are given as the source filed them.
# Assays:
# [1] = target: Potassium voltage-gated channel subfamily KQT member 2 (Rattus norvegicus, UniProt O88943, W236L); assay: potentiation of rat KCNQ2 current – cell-based, automated electrophysiology, mechanism study for KCNQ2 potentiator project, dose response (AID 2603); assay type: functional
# [2] = target: Voltage-gated inwardly rectifying potassium channel KCNH2 (Homo sapiens, UniProt Q12809); assay: concentration-dependent hERG rescue from blockers – cell-based, thallium flux, dose response (AID 2121); assay type: ADME
# [3] = target: T1, Polyadenylate-binding protein 1 (Homo sapiens, UniProt P11940); assay: MLLE binding blockers, Cy5 peptide tracer – biochemical, fluorescence polarization, Cy5-PAM2 peptide, secondary, miRNA deadenylation inhibitor project, dose response (AID 602260); assay type: functional; conditions: read-out: IC50_Mean
# [4] = target: T1, Polyadenylate-binding protein 1; assay: MLLE domain peptide-binding blockers, IC50 – biochemical, fluorescence polarization, FITC-PAM2 peptide, dose response (AID 602259); assay type: functional; conditions: read-out: IC50_Mean
# [5] = tested on: MEF; assay: SAR analysis of small molecule cytotoxicity of MazEF TA System activators in embryonic fibroblast (MEF) cells. [Related pubchem assays (depositor defined):AID504720, AID504743]; assay type: functional; conditions: Mus musculus
# [6] = target: T2, Endoribonuclease toxin MazF (Escherichia coli K-12, UniProt P0AE70); assay: MazEF toxin-antitoxin RNase activation – biochemical, fluorescence, single-stranded RNA substrate, SAR follow-up (AID 588603); assay type: functional
# T2 sequence (P0AE70 whole entry): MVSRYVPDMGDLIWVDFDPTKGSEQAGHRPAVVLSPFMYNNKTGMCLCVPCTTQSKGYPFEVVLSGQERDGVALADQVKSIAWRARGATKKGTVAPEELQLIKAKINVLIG
# [7] = target: T2, Endoribonuclease toxin MazF; assay: SAR analysis of small molecule activators of the MazEF TA System via a fluorescence-based single-stranded RNase assay counterscreen. [Related pubchem assays (depositor defined):AID504720, AID504743]; assay type: functional
# [8] = target: Photoreceptor-specific nuclear receptor (Homo sapiens, UniProt Q9Y5X4); assay: ligands suppressing NR2E3 nuclear receptor activity – biochemical, TR-FRET, dose response (AID 463256); assay type: functional
# [9] = target: T2, Endoribonuclease toxin MazF; assay: activation of MazEF endoribonuclease cleavage – biochemical, fluorescence, single-stranded RNA substrate, uHTS hits, dose response (AID 588481); assay type: functional
# [10] = target: Cytochrome P450 2C9 (Homo sapiens, UniProt P11712)
# [11] = target: T2, Endoribonuclease toxin MazF; assay: substrate-only fluorescence increase artefacts – biochemical, single-stranded RNase substrate, counter-screen for MazEF activator project, dose response (AID 588502); assay type: functional
# [12] = target: Cytochrome P450 3A4 (Homo sapiens, UniProt P08684);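 note: CYP3A4 tested as one member of a cytochrome P450 panel screen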
# [13] = target: Peroxisome proliferator-activated receptor gamma/Nuclear receptor corepressor 2 (Homo sapiens, UniProt P37231+Q9Y618); assay: Counterscreen for NR2E3 inverse agonists: TR-FRET-based biochemical high throughput dose response assay to identify inverse agonists of the interaction between peroxisome proliferator-activated receptor gamma (PPARg) and nuclear receptor co-repressor 2 (NCOR2).; assay type: functional
# [14] = target: Sphingosine 1-phosphate receptor 2 (Homo sapiens, UniProt O95136); assay: Dose Response Cell Based Assay for Agonists of the S1P2 Receptor of Purchased Analogues. [Related pubchem assays: 729, 843, 854, 736 ]; assay type: functional
# [15] = tested on: H4; assay: Luminescence Cell-Based Dose Response HTS to Identify Activators of 5'UTR Stem-Loop Driven Prion Protein mRNA Translation in H4 Neuroglioblastoma Cells. [Related pubchem assays: 1829 (Project Summary), 1814 (Primary HTS)]; assay type: functional; conditions: Homo sapiens
# [16] = Luminescence Cell-Based Dose Response to Identify Activators of Luciferase Translation or Activity in H4-C Neuroglioblastoma Cells. [Related pubchem assays: 1829 (Project Summary), 1814 (Primary HTS)]; assay type: functional
# [17] = Luminescence Cell-Based Dose Confirmation to Identify Activators of 5'UTR Stem-Loop Driven Alpha-Synuclein mRNA Translation in H4 Neuroglioblastoma Cells. [Related pubchem assays: 1829 (Project Summary), 1814 (Primary HTS)]; assay type: functional
# [18] = Luminescence Cell-Based Dose Confirmation HTS to Identify Activators of 5'UTR Stem-Loop Driven Alpha-Synuclein mRNA Translation in H4 Neuroglioblastoma Cells. [Related pubchem assays: 1829 (Project Summary), 1814 (Primary HTS)]; assay type: functional
# [19] = Luminescence Cell-Based Dose Response HTS to Identify Activators of Luciferase Translation or Activity in H4 […] Cells. [Related pubchem assays: 1829 (Project Summary), 1814 (Primary HTS)]; assay type: functional
# [20] = Luminescence Cell-Based Dose Response to Identify Activators of 5'UTR Stem-Loop Driven Prion Protein mRNA Translation in H4-C Neuroglioblastoma Cells. [Related pubchem assays: 1829 (Project Summary), 1814 (Primary HTS)]; assay type: functional
# [21] = tested on: INS1; assay: INS-1E survival protection against cytokine death – cell-based, luminescence, retest, dose response (AID 449756); assay type: functional; conditions: Rattus norvegicus;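 note: cell death triggered by IL-1 beta plus TNF-alpha plus IFN-gamma mixture; protective hits raise ATP signal compared with cytokine alone wells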
# [22] = target: Galanin receptor type 2 (Homo sapiens, UniProt O43603); assay: Dose Response cell-based high-throughput screening assay to identify antagonists of galanin receptor 2 (GALR2). [Related pubchem assays: 828, 866 ]; assay type: functional
# [23] = tested on: Vero; assay: cells; assay type: functional; conditions: Chlorocebus sabaeus
# [24] = reduced cellular PGC1a acetyl-lysine signal – cell-based, cherry-picked samples, dose response (AID 720514); assay type: functional;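 note: potency may reflect raised or lowered acetylation signal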
# [25] = target: Sphingosine 1-phosphate receptor 1 (Homo sapiens, UniProt P21453); assay type: functional;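 note: Tango beta-arrestin reporter U2OS cells stimulated with S1P near its EC80; inhibitor potency meaning antagonism of receptor activation by the natural agonist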
# [26] = target: T3, Hepatocyte nuclear factor 4-alpha (Homo sapiens, UniProt P41235); assay type: functional, cell-based;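 note: biochemical luminescence-based dose-response counterscreen measuring inhibition of HNF4 dimerization, run alongside a screen for blockers of ABHD5–perilipin-5 interaction; split luciferase complementation of HNF4 fusion proteins in cell lysate measuring dimerization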
# T3 sequence (P41235 whole entry): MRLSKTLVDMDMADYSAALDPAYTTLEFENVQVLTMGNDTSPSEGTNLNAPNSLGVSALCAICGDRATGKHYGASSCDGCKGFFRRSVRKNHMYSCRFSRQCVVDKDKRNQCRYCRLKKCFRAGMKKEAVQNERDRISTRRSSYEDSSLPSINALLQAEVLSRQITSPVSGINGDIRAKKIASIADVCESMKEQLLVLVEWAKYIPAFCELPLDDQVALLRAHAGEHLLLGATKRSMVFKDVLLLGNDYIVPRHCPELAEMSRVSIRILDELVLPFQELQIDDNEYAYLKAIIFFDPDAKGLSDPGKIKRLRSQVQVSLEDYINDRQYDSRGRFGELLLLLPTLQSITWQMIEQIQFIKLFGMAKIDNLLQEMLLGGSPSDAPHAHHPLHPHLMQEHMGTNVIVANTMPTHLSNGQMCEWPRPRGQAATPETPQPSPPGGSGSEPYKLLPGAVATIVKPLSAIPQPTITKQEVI
# [27] = target: Sphingosine 1-phosphate receptor 4 (Homo sapiens, UniProt O95977); assay: Fluorescence dose response cell-based high throughput screening assay for antagonists of the Sphingosine 1-Phosphate Receptor 4 (S1P4). [Related pubchem assays: 1524 (Confirmation in triplicates.), 1510 (Primary screen.)]; assay type: functional
# Chain of Sphingosine 1-phosphate receptor 4 (O95977 whole entry): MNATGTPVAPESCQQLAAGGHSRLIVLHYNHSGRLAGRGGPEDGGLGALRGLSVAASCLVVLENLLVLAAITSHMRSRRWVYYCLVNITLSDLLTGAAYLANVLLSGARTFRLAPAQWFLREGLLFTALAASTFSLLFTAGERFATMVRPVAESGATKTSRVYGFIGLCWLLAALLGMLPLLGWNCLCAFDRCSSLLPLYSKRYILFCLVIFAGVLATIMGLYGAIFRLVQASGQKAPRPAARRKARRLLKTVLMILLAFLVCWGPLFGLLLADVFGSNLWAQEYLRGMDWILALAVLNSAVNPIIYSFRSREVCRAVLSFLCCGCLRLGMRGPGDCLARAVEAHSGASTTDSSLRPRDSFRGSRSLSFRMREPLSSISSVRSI
# T1 sequence (P11940 whole entry, the tested form may be a part): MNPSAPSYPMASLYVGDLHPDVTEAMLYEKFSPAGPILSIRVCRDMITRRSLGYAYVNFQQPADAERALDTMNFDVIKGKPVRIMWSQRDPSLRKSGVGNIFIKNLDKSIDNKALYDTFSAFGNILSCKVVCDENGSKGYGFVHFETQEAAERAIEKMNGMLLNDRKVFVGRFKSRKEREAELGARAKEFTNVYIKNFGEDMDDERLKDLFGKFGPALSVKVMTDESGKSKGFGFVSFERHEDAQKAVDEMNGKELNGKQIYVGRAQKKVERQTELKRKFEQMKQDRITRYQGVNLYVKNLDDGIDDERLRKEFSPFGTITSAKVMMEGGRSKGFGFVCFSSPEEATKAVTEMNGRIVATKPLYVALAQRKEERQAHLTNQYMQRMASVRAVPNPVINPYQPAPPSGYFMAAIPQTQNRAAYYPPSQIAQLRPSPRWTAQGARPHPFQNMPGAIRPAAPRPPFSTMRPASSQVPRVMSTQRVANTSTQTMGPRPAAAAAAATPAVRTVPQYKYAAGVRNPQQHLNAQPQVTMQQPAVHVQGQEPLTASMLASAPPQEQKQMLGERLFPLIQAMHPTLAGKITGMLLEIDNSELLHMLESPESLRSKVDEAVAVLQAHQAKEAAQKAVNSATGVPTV
# Chain of Voltage-gated inwardly rectifying potassium channel KCNH2 (Q12809 whole entry): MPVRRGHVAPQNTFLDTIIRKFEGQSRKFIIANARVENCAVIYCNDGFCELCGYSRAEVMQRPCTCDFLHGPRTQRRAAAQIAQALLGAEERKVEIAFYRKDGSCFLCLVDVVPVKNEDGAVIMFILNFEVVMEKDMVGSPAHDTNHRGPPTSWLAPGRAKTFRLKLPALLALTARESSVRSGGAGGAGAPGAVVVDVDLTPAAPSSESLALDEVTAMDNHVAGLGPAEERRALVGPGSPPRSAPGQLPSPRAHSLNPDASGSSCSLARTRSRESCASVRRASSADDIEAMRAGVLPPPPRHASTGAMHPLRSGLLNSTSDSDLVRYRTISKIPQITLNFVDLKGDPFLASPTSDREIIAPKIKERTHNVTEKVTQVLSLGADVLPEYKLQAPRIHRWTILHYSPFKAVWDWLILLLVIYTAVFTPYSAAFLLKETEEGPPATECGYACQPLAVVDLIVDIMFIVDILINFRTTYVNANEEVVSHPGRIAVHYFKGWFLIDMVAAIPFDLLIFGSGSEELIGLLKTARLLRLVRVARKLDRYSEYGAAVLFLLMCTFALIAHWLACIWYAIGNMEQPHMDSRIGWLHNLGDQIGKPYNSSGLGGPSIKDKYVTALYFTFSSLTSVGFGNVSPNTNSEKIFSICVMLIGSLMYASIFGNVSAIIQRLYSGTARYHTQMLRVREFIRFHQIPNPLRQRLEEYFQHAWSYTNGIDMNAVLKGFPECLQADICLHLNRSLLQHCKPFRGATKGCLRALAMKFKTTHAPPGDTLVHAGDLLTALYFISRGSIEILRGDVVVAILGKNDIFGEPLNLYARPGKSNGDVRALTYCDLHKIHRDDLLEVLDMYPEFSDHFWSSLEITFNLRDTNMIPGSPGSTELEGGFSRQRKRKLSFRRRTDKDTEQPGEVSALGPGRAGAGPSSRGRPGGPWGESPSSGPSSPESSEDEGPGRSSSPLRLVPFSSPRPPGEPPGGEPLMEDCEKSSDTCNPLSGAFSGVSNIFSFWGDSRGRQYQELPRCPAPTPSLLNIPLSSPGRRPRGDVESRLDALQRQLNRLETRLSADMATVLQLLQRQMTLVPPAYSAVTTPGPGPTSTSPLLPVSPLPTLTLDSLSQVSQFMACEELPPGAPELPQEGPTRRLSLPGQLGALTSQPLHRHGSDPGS
# Chain of Cytochrome P450 2C9 (P11712 whole entry): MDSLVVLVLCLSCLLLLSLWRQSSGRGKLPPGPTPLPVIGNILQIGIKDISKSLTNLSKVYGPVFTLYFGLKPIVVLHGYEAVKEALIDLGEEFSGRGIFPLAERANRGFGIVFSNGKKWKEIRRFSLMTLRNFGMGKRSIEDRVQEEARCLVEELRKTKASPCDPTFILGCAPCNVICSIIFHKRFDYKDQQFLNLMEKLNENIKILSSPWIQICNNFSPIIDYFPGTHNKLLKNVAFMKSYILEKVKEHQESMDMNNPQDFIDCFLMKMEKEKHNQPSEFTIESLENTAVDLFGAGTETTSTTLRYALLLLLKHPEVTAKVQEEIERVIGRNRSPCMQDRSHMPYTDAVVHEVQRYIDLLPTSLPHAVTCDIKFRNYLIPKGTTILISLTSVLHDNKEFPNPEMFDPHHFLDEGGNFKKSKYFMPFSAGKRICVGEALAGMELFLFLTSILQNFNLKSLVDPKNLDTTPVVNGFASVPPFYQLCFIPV
# Chain of Sphingosine 1-phosphate receptor 2 (O95136 whole entry): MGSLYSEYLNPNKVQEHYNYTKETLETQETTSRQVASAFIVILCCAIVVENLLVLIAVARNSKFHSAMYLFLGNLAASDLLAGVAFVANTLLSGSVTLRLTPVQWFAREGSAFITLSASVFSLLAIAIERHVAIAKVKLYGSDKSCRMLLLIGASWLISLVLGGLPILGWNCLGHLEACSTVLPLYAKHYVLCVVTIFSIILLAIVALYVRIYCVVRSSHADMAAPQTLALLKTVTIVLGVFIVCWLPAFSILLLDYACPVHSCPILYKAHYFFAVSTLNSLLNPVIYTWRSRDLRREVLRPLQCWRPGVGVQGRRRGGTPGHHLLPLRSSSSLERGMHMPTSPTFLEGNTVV
# Chain of Galanin receptor type 2 (O43603 whole entry): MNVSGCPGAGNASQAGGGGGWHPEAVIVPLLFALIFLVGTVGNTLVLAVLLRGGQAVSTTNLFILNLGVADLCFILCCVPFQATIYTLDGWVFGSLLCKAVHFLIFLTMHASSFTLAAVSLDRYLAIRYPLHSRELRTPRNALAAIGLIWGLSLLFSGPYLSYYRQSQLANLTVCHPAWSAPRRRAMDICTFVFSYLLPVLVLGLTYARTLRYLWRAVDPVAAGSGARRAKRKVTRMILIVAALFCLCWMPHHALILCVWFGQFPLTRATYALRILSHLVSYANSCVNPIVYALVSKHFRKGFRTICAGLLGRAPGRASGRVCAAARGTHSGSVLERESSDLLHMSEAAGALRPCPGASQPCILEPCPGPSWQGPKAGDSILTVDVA
# Chain of Sphingosine 1-phosphate receptor 1 (P21453 whole entry, the tested form may be a part): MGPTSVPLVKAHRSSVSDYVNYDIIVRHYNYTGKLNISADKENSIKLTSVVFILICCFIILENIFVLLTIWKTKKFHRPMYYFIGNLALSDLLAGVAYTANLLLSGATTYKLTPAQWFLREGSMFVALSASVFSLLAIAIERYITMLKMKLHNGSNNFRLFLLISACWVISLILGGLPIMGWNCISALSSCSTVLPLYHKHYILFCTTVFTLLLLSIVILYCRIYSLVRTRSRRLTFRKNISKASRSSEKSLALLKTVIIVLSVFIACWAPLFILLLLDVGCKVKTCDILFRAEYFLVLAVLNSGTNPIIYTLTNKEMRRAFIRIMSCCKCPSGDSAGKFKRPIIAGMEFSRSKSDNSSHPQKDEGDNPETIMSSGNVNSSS
# Chain of Potassium voltage-gated channel subfamily KQT member 2 (O88943 whole entry W236L): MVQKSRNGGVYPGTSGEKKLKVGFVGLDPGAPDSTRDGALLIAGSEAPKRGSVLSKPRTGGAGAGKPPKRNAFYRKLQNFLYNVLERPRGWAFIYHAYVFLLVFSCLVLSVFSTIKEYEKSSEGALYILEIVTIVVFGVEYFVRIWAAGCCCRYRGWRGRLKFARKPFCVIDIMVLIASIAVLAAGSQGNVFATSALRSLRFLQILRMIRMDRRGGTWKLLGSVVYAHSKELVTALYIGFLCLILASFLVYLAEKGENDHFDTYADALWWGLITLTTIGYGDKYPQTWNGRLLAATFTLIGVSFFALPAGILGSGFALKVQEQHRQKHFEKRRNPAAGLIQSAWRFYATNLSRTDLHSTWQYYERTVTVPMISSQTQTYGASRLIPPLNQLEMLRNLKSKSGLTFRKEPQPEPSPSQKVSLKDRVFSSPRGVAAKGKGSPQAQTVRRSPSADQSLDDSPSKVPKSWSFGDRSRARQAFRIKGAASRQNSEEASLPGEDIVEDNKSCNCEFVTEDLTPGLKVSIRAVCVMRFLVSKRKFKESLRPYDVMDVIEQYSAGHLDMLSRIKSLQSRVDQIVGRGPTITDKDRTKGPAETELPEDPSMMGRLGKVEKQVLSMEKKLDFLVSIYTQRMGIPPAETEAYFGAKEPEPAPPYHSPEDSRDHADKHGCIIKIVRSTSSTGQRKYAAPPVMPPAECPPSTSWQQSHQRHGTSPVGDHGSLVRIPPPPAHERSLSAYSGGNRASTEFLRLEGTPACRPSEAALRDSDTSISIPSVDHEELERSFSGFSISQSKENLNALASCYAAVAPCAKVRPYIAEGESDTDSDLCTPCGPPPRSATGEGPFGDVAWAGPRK
smiles,measurement,setting,value
Cc1nc(C)c(-c2csc(Nc3ccccn3)n2)s1,EC50,[1],115 µM (active)
Cc1ccc(S(=O)(=O)N=C(S)NC2CCCCC2)cc1,EC50,[2],9.12 µM (active)
same,IC50,[3],> 66 µM (inactive)
same,IC50,[4],> 66 µM (inactive)
O=C(CSc1nc(-c2ccccc2)nc2ccccc12)Nc1nccs1,CC50,[5],29.7 µM (active)
same,EC50,[6],29.1 µM (inactive)
same,EC50,[7],> 99 µM (inactive)
same,IC50,[8],5.93 µM (active)
same,EC50,[9],20.7 µM (inactive)
same,AC50,[10],0.631 µM (inconclusive)
same,EC50,[11],45 µM (inactive)
same,AC50,[12],1 µM (inconclusive)
same,IC50,[13],> 39.8 µM (not active)
Cc1cc(C(=O)COC(=O)CN2C(=O)C3CCCCC3C2=O)c(C)n1Cc1ccccc1 (configuration not stated),EC50,[14],> 30 µM (not active)
CC1CCCCN1CCCNC(=O)c1ccc2nc(N3CCCCC3)sc2c1 (configuration not stated),EC50,[15],15.1 µM (active)
same,EC50,[16],0.397 µM (active)
same,EC50,[17],0.593 µM (active)
same,EC50,[18],0.177 µM (active)
same,EC50,[19],< 0.1 µM (active)
same,EC50,[20],0.994 µM (active)
CCOC(=O)N1CCN(c2[nH]cnc3c4cc(F)ccc4nc2-3)CC1,AC50,[21],5.61 µM (active)
same,IC50,[22],45.6 µM (not active)
O=C(/C=C/c1ccccc1)CC(O)(c1ccccc1)C(F)(F)C(F)F (configuration not stated),CC50,[23],17.5 µM (active)
same,AC50,[24],12.4 µM (active)
same,IC50,[25],30.6 µM (not active)
same,IC50,[26],2.27 µM (active)
same,IC50,[27],1.7 µM (active)
